Assay results from PMC12606047, “Targeting the Liquid–Liquid Separation Region of c‐Maf for Treating Chromosomal Translocations in Multiple Myeloma” (MedComm, 2025).

Legend:
[1] = tested on: 5TMM3VT mouse myeloma cells; experiment: 5TMM3VT mouse model; assay type: in vivo, C57BL/KaLwRij mice; conditions: single treatment; BBA 5 mg/kg, BTZ 1 mg/kg
Method: 5TMM3VT mouse myeloma cells (1 × 10^6) were injected through the tail vein into C57BL/KaLwRij mice from Harlan Laboratories (n = 9 per group). The mice were randomly divided into four groups (Ctrl, BBA, BTZ and BBA+BTZ combination groups). On the third day after modeling, oral administration of PBS, BBA (5 mg/kg) and BTZ (1 mg/kg) was performed twice a week, while combination therapy was administered every other day.

MM PDX tumor = experiment: MM patient-derived tumor xenograft (PDX) model; assay type: in vivo, NOD/SCID mice; conditions: IHC and IF, single treatment
Method: The biopsy sample was taken from tumor tissue excised from MM patient at Nanjing Hospital of Chinese Medicine affiliated with Nanjing University of Chinese Medicine. The tissue was then cut into 2.5×2.5×2.5 mm^3 pieces and transplanted subcutaneously into 6-week-old NOD/SCID male mice (n = 6 mice in each group) under anesthesia with 1% sodium pentobarbital. […] This process was repeated three times to ensure stable tumor growth. […] Single treatment was administered every three days, while combination treatment was administered every other day.

c-Maf protein [2] = biological target: T1, c-Maf protein (Homo sapiens, UniProt O75444); experiment: Surface plasmon resonance (SPR) binding to c-Maf protein; conditions: values given in mM; read-out: SPR dissociation constant (Kd)
T1 construct: made in house; host or cells: prokaryotic (pET-28a vector)
T1 sequence (O75444 1-373): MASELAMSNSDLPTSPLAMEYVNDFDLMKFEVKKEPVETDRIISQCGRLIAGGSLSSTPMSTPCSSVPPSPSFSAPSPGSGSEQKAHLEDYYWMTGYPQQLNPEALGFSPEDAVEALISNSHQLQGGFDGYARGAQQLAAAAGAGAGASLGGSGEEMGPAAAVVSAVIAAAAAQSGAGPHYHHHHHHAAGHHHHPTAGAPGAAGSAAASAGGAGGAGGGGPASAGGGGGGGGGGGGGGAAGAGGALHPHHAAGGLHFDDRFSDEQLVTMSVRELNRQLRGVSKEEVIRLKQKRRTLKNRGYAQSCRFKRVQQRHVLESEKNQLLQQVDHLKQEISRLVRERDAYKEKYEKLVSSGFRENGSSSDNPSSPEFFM

ARP1 cells = experiment: MTT proliferation assay, ARP1 cells; assay type: cell-based, human; conditions: ARP1 WT; Table 2 prints no cell line, its BBA value equals the ARP1 IC50 of b29
c-Maf protein [3] = biological target: T1, c-Maf protein; experiment: Microscale thermophoresis (MST) binding to c-Maf protein; conditions: labelled purified c-Maf protein; read-out: MST dissociation constant (Kd)
Method: To determine if the screened compound interacts with the c-Maf protein, we used a MonolithTM RED-NHS second generation protein labelling kit (NanoTemper Germany) to fluorescently label 10 µM of purified c-Maf protein. We then mixed various concentrations of the drug with an equal concentration of c-Maf protein and incubated the mixture for 5 min at room temperature. The mixture was then aspirated with a capillary tube and the binding capacity was measured using a new generation biomolecular interaction assay (NanoTemper Germany). The Kd values were calculated using analytical software.

Compound | Survival time of 5TMM3VT mice [1] | Expression of c-Maf, Ki67, RNA Pol II, Mtbp, c-Myc and c-Maf/RNA Pol II co-localization in tumors (MM PDX tumor) | Kd (c-Maf protein [2]) [mM] | MTT IC50 (ARP1 cells) | Kd (c-Maf protein [3]) [mM]
CC(C)C[C@H](NC(=O)[C@H](Cc1ccccc1)NC(=O)c1cnccn1)B(O)O [BTZ, bortezomib] | significantly improved | inhibited | – | – | –
Chlorophenylacetamide | – | – | 3.31 | Unstable | 0.555
